Test results taken from patent US6338963B1, “Use of carbon monoxide dependent guanylyl cyclase modifiers to stimulate neuritogenesis” (NeoTherapeutics, Inc., priority 1994, dated 2002).
Marks after values point to notes of the source that are not given here.

Key:
C57BL/6 mice = test: Win-shift test, C57BL/6 mice with age-induced memory deficits; type: in vivo; conditions: for subjects performing significantly above chance/total number of subjects: AIT-082 30 mg/kg
Description: Twelve-month old male C57BL/6 mice were screened for performance in the win-shift foraging test. Subjects were tested at various inter-trial time intervals. Subjects who could not perform to criteria (>60% correct) at 10 seconds delay were classified as having a severe deficit. Subjects who performed to criteria at 10 seconds but not at 30 seconds were classified as having a moderate degree of deficit and subjects who performed to criteria at 30 seconds but not at 60 seconds were classified as having mild deficit. As in Example 21, subjects in each group were treated with either AIT-082 or PHY to determine the extent to which the working memory trace was prolonged. The results are presented in Table M directly below and graphically represented in FIG. 10.

CNTF = test: Summary of effects on growth factor mRNA and protein (Table R): CNTF; parameters: key: ± = mRNA; + = protein; nt = not tested
Text: (§1) The constellation of effects of AIT-082 on production of mRNA encoding growth factors and on production of growth factor proteins is shown in Table R. The results summarized in […] show both transcriptional and translational effects on growth factors that are in the categories of neurotrophins, pleiotrophins, members of the S100 family of EF hand calcium binding proteins, and members of the TGFβ superfamily. As indicated, effects have been shown at both the mRNA (transcriptional) and protein (translational) levels.

NGF = test: Summary of effects on growth factor mRNA and protein (Table R): NGF; parameters: key: ± = mRNA; + = protein; nt = not tested; conditions: Aged Brain
Text: as §1

NT-3 = test: Summary of effects on growth factor mRNA and protein (Table R): NT-3; parameters: key: ± = mRNA; + = protein; nt = not tested
Text: as §1

Swiss Webster mice = test: Locomotor activity (spontaneous movements), Swiss Webster mice; type: in vivo
Description: The activity of AIT-082 was compared with tacrine (THA) and physostigmine (PHY), experimental anticholinesterase agents which enhance memory in animals. The drugs were also evaluated for their effects on locomotor activity. In the win-shift memory paradigm, AIT-082 was evaluated for its ability to induce tolerance after 18 days of drug administration. In addition AIT-082 was tested for its activity to modify learning in a modified T-maze discrimination task.
The drugs used in this example are 4-((3-(1,6-dihydro-6-oxo-9-purin-9-yl)-1-oxopropyl)amino) benzoic acid (AIT-082), as an exemplary potassium salt, tacrine hydrochloride (tetrahydroaminoacridine, THA, Sigma Chemical Co., St. Louis, Mo.), and physostigmine, hemisulfate salt (PHY, Sigma Chemical Co., St. Louis, Mo.). The drugs were dissolved in saline and prepared fresh daily. All injections were made at a volume of 0.1 ml/10 grams body weight. When testing drug effects, intraperitoneal (i.p.) injections of AIT-082 or THA were made one hour prior to the start of testing. Due to its shorter duration of action, PHY was injected 30 minutes prior to testing. Control subjects receive a similar injection of saline (vehicle).

Which results are given for O=C(CCn1cnc2c(=O)[nH]cnc21)Nc1ccc(C(=O)O)cc1 [AIT-082, N-4-carboxyphenyl-3-(6-oxohydropurin-9-yl)propanamide]?
subjects performing significantly above chance/total number of subjects (C57BL/6 mice; Mild deficit, interval 60 sec): 4/4*; subjects performing significantly above chance/total number of subjects (C57BL/6 mice; Mild deficit, interval 90 sec): 2/4*; subjects performing significantly above chance/total number of subjects (C57BL/6 mice; Moderate deficit, interval 10 sec): 6/6*; subjects performing significantly above chance/total number of subjects (C57BL/6 mice; Moderate deficit, interval 30 sec): 4/6; subjects performing significantly above chance/total number of subjects (C57BL/6 mice; Moderate deficit, interval 60 sec): 1/6; subjects performing significantly above chance/total number of subjects (C57BL/6 mice; Moderate deficit, interval 90 sec): 0/6; subjects performing significantly above chance/total number of subjects (C57BL/6 mice; Severe deficit, interval <10 sec): 0/6; duration of the memory trace after treatment (C57BL/6 mice; mild deficit group, prolonged from 30): 90 s; duration of the memory trace after treatment (C57BL/6 mice; moderate deficit group, prolonged from 10): 30 s; CNTF, effect on mRNA/protein production (CNTF; Lesioned Spinal Cord): ±; CNTF, effect on mRNA/protein production (CNTF; Normal Spinal Cord): ±; NGF, effect on mRNA/protein production (NGF): ±; NT-3, effect on mRNA/protein production (NT-3; Aged Brain): +; NT-3, effect on mRNA/protein production (NT-3; Cultured Cells): ±; NT-3, effect on mRNA/protein production (NT-3; Lesioned Spinal Cord): ±; NT-3, effect on mRNA/protein production (NT-3; Normal Brain): +; Locomotor Activity (Swiss Webster mice; AIT-082 0.5 mg/kg): 323 Spontaneous movements per hour; Locomotor Activity (Swiss Webster mice; AIT-082 30.0 mg/kg): 378 Spontaneous movements per hour
